Measurements from EP1714638A1, “Cosmetic deodorant composition comprising a combination of zinc salicylate or a derivative thereof with an aluminium salt antiperspirant active” (L'ORÉAL, priority 2005, dated 2006).

Assay: Deodorant efficacy test: odour intensity of incubated axillary sweat rated by an expert panel
Parameters: species or system humaine
Conditions: 24 heures d'incubation à 37°C, versus control sweat without active, scale 0-4
Experimental: Des recueils de sueur axillaire sont effectués en sauna sur 6 volontaires, les échantillons de sueur individuelle, conservés dans la glace pendant quelques heures, sont alors pratiquement inodores. Ils sont ensuite mélangés et répartis en aliquots de 1 ml. Les actifs sont rajoutés à ces aliquots, puis mis à incuber à l'étuve 37°C. Après 24 heures d'incubation, un jury d'experts évalue l'intensité de l'odeur comparativement à un échantillon témoin : 1 ml de sueur incubée sans ajout d'actif. L'intensité est évaluée sur une échelle de 0 (pas d'odeur) à 4 (très forte odeur).
Les résultats sont exprimés en % de variation de l'intensité de l'odeur comparativement à cet échantillon de sueur témoin (moyenne des % de variation à T24h). Δ = ((intensité odeur de l'échantillon témoin−intensité odeur de l'échantillon avec actif))/(intensité odeur de l'échantillon témoin) × 100 [formula]

Compound	% de diminution de l'intensité de l'odeur (0,1 mg MA/ml de sueur) [%]	further results
Aluminium chlorohydrate [ACH]	-35	–
Salicylate de zinc [(A)]	-21	–
CCCCCC[C@@H](O)C/C=C\CCCCCCCC(=O)[O-].CCCCCC[C@@H](O)C/C=C\CCCCCCCC(=O)[O-].[Zn+2] [(C), Ricinoleate de zinc]	–	% de diminution de l'intensité de l'odeur (0,3 mg MA/ml de sueur): -4%
Oc1cc(Cl)ccc1Oc1ccc(Cl)cc1Cl [(B), 2,4,4'-trichloro-2'-hydroxydiphényléther]	–	% de diminution de l'intensité de l'odeur (0,4 mg MA/ml de sueur): -49%
